The values below come from patent US12612360B2 (Sanofi, priority 2020, dated 2026).

In this assay the target is T1, ERα (Homo sapiens, UniProt P03372).
T1 construct: host or cells: MCF7
T1 sequence (P03372 1-595): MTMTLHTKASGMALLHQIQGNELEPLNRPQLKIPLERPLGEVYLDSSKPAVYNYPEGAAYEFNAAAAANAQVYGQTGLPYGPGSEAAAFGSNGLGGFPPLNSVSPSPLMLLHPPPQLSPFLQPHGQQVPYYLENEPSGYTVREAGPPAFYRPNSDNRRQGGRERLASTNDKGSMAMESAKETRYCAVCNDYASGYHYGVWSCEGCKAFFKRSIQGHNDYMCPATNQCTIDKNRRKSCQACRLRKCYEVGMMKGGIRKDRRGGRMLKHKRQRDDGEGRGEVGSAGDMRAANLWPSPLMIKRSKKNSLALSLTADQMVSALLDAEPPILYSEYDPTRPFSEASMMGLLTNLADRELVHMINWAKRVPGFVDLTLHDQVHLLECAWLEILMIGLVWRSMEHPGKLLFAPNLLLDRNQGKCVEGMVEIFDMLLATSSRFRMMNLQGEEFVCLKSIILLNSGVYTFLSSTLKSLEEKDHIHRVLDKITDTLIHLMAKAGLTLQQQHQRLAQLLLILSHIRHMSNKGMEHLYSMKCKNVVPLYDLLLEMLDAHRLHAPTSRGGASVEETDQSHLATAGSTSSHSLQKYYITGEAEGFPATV
The assay is described as follows: Estrogen receptor degradation activity: breast cancer cell ERα in cell western assay (MCF7 cells). The conditions noted are these: for % Degradation At 0.3 μM: 4 hours, relative to fulvestrant 0.1 μM positive control; for DC50: 4 hours post compound addition, concentration which degrades 50% of the estrogen receptor, read-out: Degradation IC50. It is filed as cell-based. On the procedure:
Test: Estrogen Receptor Degradation Activity Said test involves measuring the in vitro degradation activity of the compounds of the Table 1a. The measurements of the degradation activities were made using a breast cancer cell ERα in cell western assay as described hereunder. MCF7 cells (ATCC) were seeded in 384 wells microplate (collagen coated) at a concentration of 10000 cells/30 μL per well in red phenol free MEM alpha medium (invitrogen) containing 5% charcoal dextran striped FBS. The following day, 9 points serial 1:5 dilution of each compound was added to the cells in 2.5 μL at final concentrations ranging from […] (in table 2), or 0.1 μM for fulvestrant (using as positive control). At 4 hours post compound addition the cells were fixed by adding 25 μL of formalin (final concentration 5% formalin containing 0.1% triton) for 10 minutes at room temperature and then washed twice with PBS. Then, 50 μL of LI-COR blocking buffer containing 0.1% Triton was added to plate for 30 minutes at room temperature. LI-COR blocking buffer was removed and cells were incubated overnight at cold room with 50 μL anti-ER rabbit monoclonal antibody (Thermo scientific MA1-39540) diluted at 1:1000 in LI-COR blocking buffer containing 0.1% tween-20. Wells which were treated with blocking buffer but no antibody were used as background control. Wells were washed twice with PBS (0.1% tween-20) and incubated at 37° C. for 60 minutes in LI-COR (0.1% tween-20) containing goat anti-rabbit antibody Alexa 488 (1:1000) and Syto-64 a DNA dye (2 μM final concentration). Cells were then washed 3 times in PBS and scanned in ACUMEN explorer (TTP-Labtech). Integrated intensities in the green fluorescence and red fluorescence were measured to determine the levels of ERα and DNA respectively. The degradation activity with respect to estrogen receptors in this test is given by the concentration which degrades 50% of the estrogen receptor (or IC50) in nM. […] DMSO−fulvestrant)).

In the case of `Cc1ccc(C2=C(c3ccc(C=C4CN(CCCF)C4)c(F)c3)c3ccc(C(=O)O)cc3CCC2)c(F)c1` [Example 69, 9-(3-fluoro-4-((1-(3-fluoropropyl)azetidin-3-ylidene)methyl)phenyl)-8-(2-fluoro-4-methylphenyl)-6,7-dihydro-5H-benzo[7]annulene-3-carboxylic acid], the “% Degradation At 0.3 μM” value is 94% and the DC50 is 0.5 nM.

In the case of `O=C(O)c1ccc2c(c1)CCCC(c1ccc(Cl)cc1Cl)=C2c1ccc(C=C2CN(CCCF)C2)cc1` [Example 1, 8-(2,4-Dichlorophenyl)-9-(4-((1-(3-fluoropropyl)azetidin-3-ylidene)methyl)phenyl)-6,7-dihydro-5H-benzo[7]annulene-3-carboxylic acid], the “% Degradation At 0.3 μM” value is 96% and the DC50 came to 0.4 nM.

On to `Cc1c(F)cccc1C1=C(c2ccc(C=C3CN(CCCF)C3)cc2)c2ccc(C(=O)O)cc2CCC1` [Example 85, 8-(3-fluoro-2-methylphenyl)-9-(4-((1-(3-fluoropropyl)azetidin-3-ylidene)methyl)phenyl)-6,7-dihydro-5H-benzo[7]annulene-3-carboxylic acid], for which the “% Degradation At 0.3 μM” value stood at 94% and the DC50 was found to be 0.2 nM.

Take `CC1(C)CCCC(C2=C(c3ccc(C=C4CN(CCCF)C4)cc3)c3ccc(C(=O)O)cc3CCC2)C1` (single isomer, unassigned) [Example 172, 8-(3,3-dimethylcyclohexyl)-9-(4-((1-(3-fluoropropyl)azetidin-3-ylidene)methyl)phenyl)-6,7-dihydro-5H-benzo[7]annulene-3-carboxylic acid]: the “% Degradation At 0.3 μM” value was 89% and the DC50 turned out to be 0.4 nM.

On to `CC(=C1CN(CCCF)C1)c1ccc(C2=C(c3ccc(Cl)cc3Cl)CCCc3cc(C(=O)O)ccc32)cc1` [Example 102, 8-(2,4-Dichlorophenyl)-9-(4-(1-(1-(3-fluoropropyl)azetidin-3-ylidene)ethyl)phenyl)-6,7-dihydro-5H-benzo[7]annulene-3-carboxylic acid], for which the “% Degradation At 0.3 μM” value is reported as 89% and the DC50 was found to be 0.3 nM.

Take `Cl.O=C(O)c1ccc2c(c1)CCCC(c1cccc(C(F)(F)F)c1)=C2c1ccc(C=C2CN(CCCF)C2)cc1` [Example 182, 9-(4-((1-(3-fluoropropyl)azetidin-3-ylidene)methyl)phenyl)-8-(3-(trifluoromethyl)phenyl)-6,7-dihydro-5H-benzo[7]annulene-3-carboxylic acid hydrochloride]: the “% Degradation At 0.3 μM” value is listed as 89% and the DC50 amounted to 0.6 nM.

For the molecule `Cc1cc(F)ccc1C1=C(c2c(C)cc(C=C3CN(CCCF)C3)cc2F)c2ccc(C(=O)O)cc2CCC1.Cl` [Example 62, 8-(4-fluoro-2-methylphenyl)-9-(2-fluoro-4-((1-(3-fluoropropyl)azetidin-3-ylidene)methyl)-6-methylphenyl)-6,7-dihydro-5H-benzo[7]annulene-3-carboxylic acid hydrochloride], the “% Degradation At 0.3 μM” value was determined as 99% and the DC50 turned out to be 0.5 nM.

With `O=C(O)c1ccc2c(c1)CCCC(c1ccc(F)cc1F)=C2c1ccc(C=C2CN(CCCF)C2)cc1` [Example 54, 8-(2,4-difluorophenyl)-9-(4-((1-(3-fluoropropyl)azetidin-3-ylidene)methyl)phenyl)-6,7-dihydro-5H-benzo[7]annulene-3-carboxylic acid], the “% Degradation At 0.3 μM” value was 93% and the DC50 came to 0.4 nM.

For the molecule `Cc1ccc(C(F)(F)F)c(C2=C(c3ccc(C=C4CN(CCCF)C4)cc3)c3ccc(C(=O)O)cc3CCC2)c1` [Example 119, 9-(4-((1-(3-fluoropropyl)azetidin-3-ylidene)methyl)phenyl)-8-(5-methyl-2-(trifluoromethyl)phenyl)-6,7-dihydro-5H-benzo[7]annulene-3-carboxylic acid], the “% Degradation At 0.3 μM” value is recorded as 94% and the DC50 was 0.9 nM.
